Measurements as given in patent US5919770A, “Metabolites of ginseng saponins by human intestinal bacteria and its preparation for an anticancer” (Il Hwa Co., Ltd., priority 1996, dated 1999).

Assays:
[1] = system: leukemia cell line (P388); experiment: Antitumor activity of mouse spleen lymphocytes on leukemia cell line P388 (MTT); format: cell-based, mice; conditions: for activity at 2.5 µM: P388, 2.5 μM for 16 hours (Compound K 1.56, Compound Y 1.86, Ginsenoside Mc 1.86, 20(S)-protopanaxatriol 1.19 μg/ml), control 31.3%; for fold induction at 2.5 µM: P388, 16 h, read-out: Antitumor activity, times as high as control
Experimental: Antitumor activity on leukemia cell line (P388) in lymphocyte of mice
Spleen lymphocytes of mice and leukemia cell line (P388) were used for this experiment. Spleen lymphocytes (4×10^6 cells) and leukemia cells (P388) (2×10^8 cells) were cultured in a medium (RPMI 1640 supplemented with 20 μM mercaptoethanol and 10% fetal bovine serum) containing intestinal flora metabolite of ginseng saponin (2.5 μM) in 5% CO2 saturated with steam for 16 hours. Aside from this, same numbers of spleen lymphocytes or leukemia cell line were cultured in a medium containing intestinal flora metabolite of ginseng saponin in same is concentration as a control. The number of each survived cell was purified by MTT method to calculate impaired rate of cells on leukemia cells (P388) of lymphocytes.

Human lymphocyte (HL) = experiment: Inhibition on the proliferation of human lymphocyte (HL), MTT; format: cell-based; conditions: 24 hours
Experimental: (§1) Inhibition on the vascularization of tumor (Test for the inhibition on the proliferation)
(§2) Human lymphocyte (HL), leukemia cell line (K562) and bovine artery endotheliocyte (BAE) were used for this experiment. HL (1×10^5 cells), leukemia cell line (K562) (2×10^5 cells) and BAE (5×10^3 cells) were cultured in a medium (HL, K562: RPMI 1640 medium containg 10% fetal bovine, BAE: DMEM medium containing 10% fetal bovine) containing intestinal flora metabolites of ginseng saponin concentrated with 2-fold dilution in 5% CO2 saturated with steam (HL, K562: 24 hours, BAE: 72 hours). The number of each survived cell was purified by MTT method to calculate 50% inhibition concentration (IC50), impaired rate of cells (IC50 (HL)/IC50 (BAE) and IC50 (K562)/IC50 (BAE).

[2] = system: leukemia cell line (K562); experiment: Inhibition on the proliferation of leukemia cell line K562, MTT; format: cell-based; conditions: for IC50: Homo sapiens, K562, 24 hours, MTT; for inhibitory activities on the proliferation of tumor cells: in words
Experimental: as §1, §2

[3] = system: bovine artery endotheliocyte (BAE); experiment: Inhibition on the proliferation of bovine artery endotheliocyte (BAE), MTT; format: cell-based; conditions: for IC50: Bos taurus, BAE, 72 hours, MTT; for IC50 (C)/IC50 (BAE), C = HL: ratio IC50 (HL)/IC50 (BAE); for IC50 (C)/IC50 (BAE), C = K562: ratio IC50 (K562)/IC50 (BAE)
Experimental: as §1, §2

[4] = system: bovine artery endotheliocyte (BAE); experiment: Inhibition on the migration of bovine artery endotheliocyte (vascularization of tumor); format: cell-based; conditions: for Migration-inhibition (% control), IC10: at the 10% inhibitory concentration (IC10); for Migration-inhibition (% control), IC10 / Migration-inhibition (% control), IC50: 24 hours; for Migration-inhibition (% control), IC50: at the 50% inhibitory concentration (IC50)
Experimental: Inhibition on the vascularization of tumor (Test for the inhibition on the migration)
Bovine artery endotheliocyte (BAE) was used for this experiment. BAE (5×10^3 cells) was cultured in 6-well plate for 24 hours and cells attached to the plate were detached by a razor. Said medium was replaced by a new one and after one hour, a solution of intestinal flora metabolite of ginseng saponin was added to the desired inhibitory concentration of 10% and 50%, respectively for 24-hour cultivation. After completing the cultivation, cells were fixed with methanol, stained with Giemsa method and counted the cells migrated from the detached line under microscope.

[5] = system: Human adenosarcoma tissue cell (HT1080); experiment: Inhibition on the extravasation of basement membrane (haptoinvasion, matrigel/FN filter); format: cell-based; conditions: for IC50 / inhibition at 10 µM / inhibition at 100 µM / inhibition at 1000 µM / inhibition at 1 µM: Homo sapiens; for IC50: HT-1080, 4 h, 50% inhibition of extravasation, read-out: ED50 (50% extravasation-inhibitory concentration); for inhibition at 10 µM / inhibition at 100 µM / inhibition at 1000 µM / inhibition at 1 µM: HT-1080, read-out: Inhibition rate (%)
Experimental: Inhibition on the extravasation of basement membrane
The transwell culture chamber was used for this experiment with a haptoinvasion method (reference: Cancer Res., 47, 3239, (1987)). The lower side of a filter having a hole of 8.0 μm in diameter was coated with 5 μg of matrigel for the fabrication of matrigel/FN filter. Human […] tissue cell (HT1080), treated in the intestinal flora metabolite of ginseng saponin in a concentration of 1-1000 μM at 37° C. for 30 minutes, was charged to the upper side of each filter with 1×10^5 cells/100 μL. Then, said filters were added to 24-well plate having 600 μL of MEM medium supplemented with 0.1% bovine serum albumin and them cultured for 4-hour cultivation. After completing the cultivation, cells were fixed with methanol and stained with hematoxylin, a tissue staining agent. Following the removal of cells at the upper side with a cotton pole, cells infiltrating into the lower side were counted under microscope.

cancer cells = conditions: Japanese Patent No. 93-9123, Sato et al. 1994; cited from earlier work
[6] = Toxicity in animal experiments with rats and mice
liver cancer cells = conditions: Japanese Patent No. 89-28759; cited from earlier work

SMILES | activity at 2.5 µM [1] | fold induction at 2.5 µM [1] | IC50 (Human lymphocyte (HL)) | IC50 [2] | IC50 [3] | IC50 (C)/IC50 (BAE), C = HL [3] | IC50 (C)/IC50 (BAE), C = K562 [3] | Migration-inhibition (% control), IC10 [4] | Migration-inhibition (% control), IC50 [4] | No. of infiltrated cancer cell/field ([5]; 1 μM) | No. of infiltrated cancer cell/field ([5]; 10 μM) | No. of infiltrated cancer cell/field ([5]; 100 μM) | No. of infiltrated cancer cell/field ([5]; 1000 μM) | IC50 [5] | inhibition at 10 µM ([5]; 10 μM) | inhibition at 100 µM ([5]; 100 μM) | inhibition at 1000 µM ([5]; 1000 μM) | further results
CC(C)=CCC[C@](C)(O[C@@H]1O[C@H](CO[C@@H]2OC[C@H](O)[C@H](O)[C@H]2O)[C@@H](O)[C@H](O)[C@H]1O)[C@H]1CC[C@]2(C)[C@@H]1[C@H](O)C[C@@H]1[C@@]3(C)CC[C@H](O)C(C)(C)[C@@H]3CC[C@]12C [Compound Y, 20-0-[α-L-arabinopyranosyl (1→6)-β-D-glucopyranosyl]-20(S)-protopanaxadiol] | 56.6% | 1.8 | 83 µM | 78 µM | 32 µM | 2.6 | 2.6 | -3.7 % control | 28.9 % control | 125 ± 7 cell/field | 92 ± 11 cell/field | 24 ± 2 cell/field | 0 cell/field | 31 µM | 21% | 62% | 100% | 
Cc1ccc(C(=O)Nc2ccc(S(=O)(=O)O)c3cc(S(=O)(=O)O)cc(S(=O)(=O)O)c23)cc1NC(=O)c1cccc(NC(=O)Nc2cccc(C(=O)Nc3cc(C(=O)Nc4ccc(S(=O)(=O)O)c5cc(S(=O)(=O)O)cc(S(=O)(=O)O)c45)ccc3C)c2)c1 [Suramin, reference compound] |  |  |  |  |  |  |  | -3.8 % control | 37.1 % control |  |  |  |  |  |  |  |  | 
CC(C)=CCC[C@@](C)(O)[C@H]1CC[C@]2(C)[C@@H]1[C@H](O)C[C@@H]1[C@@]3(C)CC[C@H](O[C@@H]4O[C@H](CO)[C@@H](O)[C@H](O)[C@H]4O[C@@H]4O[C@H](CO)[C@@H](O)[C@H](O)[C@H]4O)C(C)(C)[C@@H]3CC[C@]12C [ginsenoside Rg3, 3-0-[β-D-glucopyranosyl(1→2)-β-D-glucopyranosyl]-20(R)-protopanaxadiol] |  |  |  |  |  |  |  |  |  |  |  |  |  |  |  |  |  | inhibition of vascularization of tumors, extravasation and metastasis of cancer cells (cancer cells): inhibit the vascularization of tumors and extravasation of cancer cells including inhibitory actions on the metastatis of cancer cells
CC(C)=CCC[C@](C)(O[C@@H]1O[C@H](CO)[C@@H](O)[C@H](O)[C@H]1O)[C@H]1CC[C@]2(C)[C@@H]1[C@H](O)C[C@@H]1[C@@]3(C)CC[C@H](O)C(C)(C)[C@@H]3CC[C@]12C [Compound K] | 51.5% | 1.6 | 45 µM | 26 µM | 28 µM | 1.7 | 1.6 | 4.6 % control | 43.2 % control | 73 ± 4 cell/field | 45 ± 9 cell/field | 0 cell/field |  | 3.2 µM | 62% | 100% |  | inhibitory activity of migration ([4]; in words, control Suramin): more potent inhibitory activity of migration than Suramin; inhibition at 1 µM ([5]; 1 μM): 38%
CC(C)=CCC[C@](C)(O)[C@H]1CC[C@]2(C)[C@@H]1[C@H](O)C[C@@H]1[C@@]3(C)CC[C@H](O)C(C)(C)[C@@H]3[C@@H](O)C[C@]12C [20(S)-protopanaxatriol] | 82.4% | 2 | 280 µM | 49 µM | 36 µM | 7.8 | 1.4 | -1.6 % control | 30.0 % control | 103 ± 14 cell/field | 93 ± 7 cell/field | 18 ± 4 cell/field | 1 ± 1 cell/field | 48 µM | 4% | 81% | 99% | inhibitory activities on the proliferation of tumor cells [2]: exhibited inhibitory activities on the proliferation of tumor cells
CC(C)=CCC[C@](C)(O[C@@H]1O[C@H](CO[C@@H]2O[C@@H](CO)[C@H](O)[C@H]2O)[C@@H](O)[C@H](O)[C@H]1O)[C@H]1CC[C@]2(C)[C@@H]1[C@H](O)C[C@@H]1[C@@]3(C)CC[C@H](O)C(C)(C)[C@@H]3CC[C@]12C [Ginsenoside Mc, 20-0-[α-L-arabinofuranosyl(1→6)-β-D-glucopyranosyl-20(S)-protopanaxadiol]] | 63.3% | 2 | 220 µM | 480 µM | 26 µM | 8.5 | 18 | -1.6 % control | 30.0 % control | 114 ± 12 cell/field | 44 ± 7 cell/field | 3 ± 1 cell/field | 0 cell/field | 7.6 µM | 62% | 97% | 100% | inhibitory activities on the proliferation of tumor cells [2]: exhibited inhibitory activities on the proliferation of tumor cells; inhibition at 1 µM ([5]; 1 μM): 3%; toxicity [6]: nearly negligible
CC(C)=CCC[C@](C)(O)[C@H]1CC[C@]2(C)[C@@H]1[C@H](O)C[C@@H]1[C@@]3(C)CC[C@H](O[C@@H]4O[C@H](CO)[C@@H](O)[C@H](O)[C@H]4O)C(C)(C)[C@@H]3CC[C@]12C [ginsenoside Rh2, 3-0-β-D-glucopyranosyl-20(s)-protopanaxadiol] |  |  |  |  |  |  |  |  |  |  |  |  |  |  |  |  |  | inhibition of the proliferation of liver cancer cells (liver cancer cells): inhibit the proliferation of liver cancer cells
CC(C)=CCC[C@](C)(O[C@@H]1O[C@H](CO[C@@H]2OC[C@H](O)[C@H](O)[C@H]2O)[C@@H](O)[C@H](O)[C@H]1O)[C@H]1CC[C@]2(C)[C@@H]1[C@H](O)C[C@@H]1[C@@]3(C)CC[C@H](O[C@@H]4O[C@H](CO)[C@@H](O)[C@H](O)[C@H]4O[C@@H]4O[C@H](CO)[C@@H](O)[C@H](O)[C@H]4O)C(C)(C)[C@@H]3CC[C@]12C [ginsenoside Rb2] |  |  |  |  |  |  |  |  |  |  |  |  |  |  |  |  |  | inhibition of vascularization of tumors, extravasation and metastasis of cancer cells (cancer cells): inhibit the vascularization of tumors and extravasation of cancer cells including inhibitory actions on the metastatis of cancer cells
